Experimental data published in PubChem BioAssay (NCI).
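Results reflect a 48-hour exposure of cells in 96-well plates to compound at five concentrations. At the TGI there is no net growth.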

Tests used:
Assay in all cases: growth of human tumour cells (NCI), 48 h
[1] = system: HOP-92 NSCLC
[2] = system: KM20L2 colon
[3] = system: MCF7 breast
[4] = system: MDA-N
[5] = system: NCI/ADR-RES ovarian
[6] = system: OVCAR-8 ovarian
[7] = system: SF-295 CNS
[8] = system: SK-MEL-2 melanoma
[9] = system: SN12C renal
[10] = system: UO-31 renal

SMILES: O=C1c2cccc(NCCNCCO)c2C(=O)c2cccc(NCCNCCO)c21
- TGI [1]: 2.9 µM
- TGI [2]: 5.3 µM
- TGI [3]: 10.3 µM
- TGI [4]: 1.55 µM
- TGI [5]: 30.9 µM
- TGI [6]: 5.97 µM
- TGI [7]: 5.77 µM
- TGI [8]: 2.77 µM
- TGI [9]: 5.82 µM
- TGI [10]: 25.9 µM
